# Target: T1, TAK1-TAB1 (Homo sapiens, UniProt O43318)
# T1 sequence (O43318 with tags, fused parts or gaps limits assumed): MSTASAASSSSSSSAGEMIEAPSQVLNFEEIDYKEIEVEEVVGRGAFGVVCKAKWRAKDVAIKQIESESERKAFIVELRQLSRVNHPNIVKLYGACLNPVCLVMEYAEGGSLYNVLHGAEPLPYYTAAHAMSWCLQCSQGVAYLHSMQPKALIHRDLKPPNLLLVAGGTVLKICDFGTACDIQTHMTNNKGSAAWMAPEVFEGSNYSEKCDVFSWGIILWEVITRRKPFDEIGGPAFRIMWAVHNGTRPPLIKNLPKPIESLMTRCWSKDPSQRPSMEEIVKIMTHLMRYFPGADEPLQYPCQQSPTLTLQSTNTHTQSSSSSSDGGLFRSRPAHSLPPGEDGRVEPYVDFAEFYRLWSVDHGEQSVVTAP
# Experiment: TAK1-TAB1 binding inhibitory potency (LanthaScreen competitive binding assay, kinase tracer-236)
# Conditions: 10 nM TAK1-TAB1, 100 nM kinase tracer-236; read-out: TAK1-Tab Inhibition IC50
# Source text: TAK1-TAB1 Binding Inhibitory Potency:
# The ability of candidate compounds to interact with TAK1-TAB1 is quantitated by a competitive binding assay using the LanthaScreen technology developed by Life Technologies. This assay is based on the binding of a proprietary, Alexa Fluor® 647-labeled, ATP-competitive kinase inhibitor (kinase tracer-236) to the TAK1-TAB1 construct in presence of a europium-conjugated antibody, resulting in a FRET (fluorescence resonance energy transfer) signal. Displacement of the kinase tracer by compound results in a lower emission ratio upon excitation of the europium chelate. Candidate compounds are designed as potential irreversible inhibitors of TAK1-TAB1, capable of ligating to an active site cysteine residue. The time dependent nature of irreversible inhibition is investigated by performing the binding assay with and without a pre-incubation of compound and TAK1-TAB1.
# The inhibitory potency of candidate compounds is measured in 20 mM HEPES pH 7.5, 10 mM MgCl2, 0.01% BSA, 0.0005% Tween-20, and 2% DMSO in the presence of 10 nM TAK1-TAB1, 2 nM Eu-anti-his antibody, and 100 nM kinase tracer-236 using a 384-well plate format. Background signal is defined in the absence of TAK1-TAB1 and uninhibited signal is defined in the presence of vehicle (2% DMSO) alone. Compounds were evaluated in an 11 point dose-response ranging from 20 μM to 0.34 nM. The binding assays are performed under two conditions to evaluate time dependence of inhibition. For the pre-incubation assay, TAK1-TAB1 and Eu-anti-his antibody are preincubated with compound or vehicle for two hours prior to the addition of kinase tracer. The non-preincubated assay is run in which TAK1-TAB1 and Eu-anti-his antibody are added to a mixture of compound and kinase tracer. IC50 values of compounds are determined using a 4 parameter logistical fit of emission ratio as a function of the concentration of compound. […]
row,Structure (SMILES),IC50 [nM]
1,"CC(=O)c1ccc(-c2cc3c(/C=C/C(N)=O)c[nH]c3nc2C)cc1 [Example 331, (E)-3-(5-(4-acetylphenyl)-6-methyl-1H-pyrrolo[2,3-b]pyridin-3-yl)acrylamide]",≤ 1000
2,"CC(C)COc1ccc(-c2cnc3[nH]cc(/C=C/C(N)=O)c3c2)cn1 [Example 325, (E)-3-(5-(6-isobutoxypyridin-3-yl)-1H-pyrrolo[2,3-b]pyridin-3-yl)acrylamide]",≤ 1000
3,"Cc1nc2[nH]cc(/C=C/C(N)=O)c2cc1-c1cccnc1 [Example 330, (E)-3-(6-methyl-5-(pyridin-3-yl)-1H-pyrrolo[2,3-b]pyridin-3-yl)acrylamide]",≤ 1000
4,"CN(C)C/C=C/C(=O)Nc1c[nH]c2ncc(-c3ccccc3)cc12 [Example 241, (E)-4-(dimethylamino)-N-(5-phenyl-1H-pyrrolo[2,3-b]pyridin-3-yl)but-2-enamide]",> 1000
5,"Cc1nc(C(=O)N(C)C)ccc1-c1cnc2[nH]cc(/C=C/C(N)=O)c2c1 [Example 351, (E)-5-(3-(3-amino-3-oxoprop-1-en-1-yl)-1H-pyrrolo[2,3-b]pyridin-5-yl)-N,N,6-trimethyl-picolinamide]",≤ 1000
6,"CCC(=O)c1ccc(-c2cnc3[nH]cc(/C=C/C(N)=O)c3n2)c(C)c1 [Example 314, (E)-3-(2-(2-methyl-4-propionylphenyl)-5H-pyrrolo[2,3-b]pyrazin-7-yl)acrylamide]",≤ 1000
7,"NC(=O)/C=C\c1c[nH]c2ncc(-c3ccc(C(O)c4nccs4)cc3)cc12 (stereo not drawn) [Example 323, (Z)-3-(5-(4-(hydroxy(thiazol-2-yl)methyl)phenyl)-1H-pyrrolo[2,3-b]pyridin-3-yl)acrylamide]",≤ 1000
8,"CN1CCC(C(=O)c2ccc(-c3cnc4[nH]cc(/C=C/C(N)=O)c4c3)cc2)CC1 [Example 334, (E)-3-(5-(4-(1-methylpiperidine-4-carbonyl)phenyl)-1H-pyrrolo[2,3-b]pyridin-3-yl)acrylamide]",≤ 1000
9,"NC(=O)/C=C/c1c[nH]c2ncc(-c3cc(Cl)cc(C(F)(F)F)c3)cc12 [Example 347, (E)-3-(5-(3-chloro-5-(trifluoromethyl)phenyl)-1H-pyrrolo[2,3-b]pyridin-3-yl)acrylamide]",≤ 1000
10,"CC(C)Cn1cc(-c2cnc3[nH]cc(/C=C/C(N)=O)c3c2)ccc1=O [Example 326, (E)-3-(5-(1-isobutyl-6-oxo-1,6-dihydropyridin-3-yl)-1H-pyrrolo[2,3-b]pyridin-3-yl)acrylamide]",≤ 1000
11,"CC(=O)c1ccc(-c2cnc3[nH]cc(/C=C/C(N)=O)c3c2)cn1 [Example 303, (E)-3-(5-(6-acetylpyridin-3-yl)-1H-pyrrolo[2,3-b]pyridin-3-yl)acrylamide]",≤ 1000
12,"NC(=O)/C=C/c1c[nH]c2ncc(C(=O)c3ccccc3)cc12 [Example 338, (E)-3-(5-benzoyl-1H-pyrrolo[2,3-b]pyridin-3-yl)acrylamide]",≤ 1000
13,"C=C(C)C(=O)Nc1c[nH]c2ncc(-c3ccccc3)cc12 [Example 233, N-(5-phenyl-1H-pyrrolo[2,3-b]pyridin-3-yl) methacrylamide]",> 1000

# Next, values leading:
row,IC50 [nM],Structure (SMILES)
1,> 1000,"N#CC(C#N)=Cc1c[nH]c2ncc(-c3ccccc3)cc12 [Example 242, 2-((5-phenyl-1H-pyrrolo[2,3-b]pyridin-3-yl)methylene) malononitrile]"
2,≤ 1000,"CC(C)(O)c1ccc(-c2cnc3[nH]cc(/C=C/C(N)=O)c3n2)cn1 [Example 305, (E)-3-(2-(6-(2-hydroxypropan-2-yl)pyridin-3-yl)-5H-pyrrolo[2,3-b]pyrazin-7-yl)acrylamide]"
3,≤ 1000,"CC(C)(O)c1cccc(-c2cnc3[nH]cc(/C=C(\C#N)C(N)=O)c3c2)c1 [Example 361, (E)-2-cyano-3-(5-(3-(2-hydroxypropan-2-yl)phenyl)-1H-pyrrolo[2,3-b]pyridin-3-yl)acrylamide]"
4,≤ 1000,"N#C/C(=C\c1c[nH]c2ncc(-c3ccc(OCC4CC4)nc3)cc12)C(N)=O [Example 364, (E)-2-cyano-3-(5-(6-(cyclopropyl-methoxy)pyridin-3-yl)-1H-pyrrolo[2,3-b]pyridin-3-yl)acrylamide]"
5,≤ 1000,"NC(=O)/C=C/c1c[nH]c2ncc(-c3ccc(N4CCCCC4)nc3)nc12 [Example 320, (E)-3-(2-(6-(piperidin-1-yl)pyridin-3-yl)-5H-pyrrolo[2,3-b]pyrazin-7-yl)acrylamide]"
6,≤ 1000,"CC(=O)c1ccc(-c2cnc3[nH]cc(/C=C/C(N)=O)c3n2)cc1C [Example 340, (E)-3-(2-(4-acetyl-3-methylphenyl)-5H-pyrrolo[2,3-b]pyrazin-7-yl)acrylamide]"
7,≤ 1000,"NC(=O)/C=C/c1c[nH]c2ncc(N3CCN(C(=O)Oc4ccccc4)CC3)cc12 [Example 302, (E)-phenyl 4-(3-(3-amino-3-oxoprop-1-en-1-yl)-1H-pyrrolo[2,3-b]pyridin-5-yl)piperazine-1-carboxylate]"
8,≤ 1000,"O=C(/C=C/CO)Nc1c[nH]c2ncc(-c3ccccc3)cc12 [Example 239, (E)-4-hydroxy-N-(5-phenyl-1H-pyrrolo[2,3-b]pyridin-3-yl)but-2-enamide]"
9,≤ 1000,"CC(C)(O)c1cccc(-c2cnc3[nH]cc(/C=C/C(N)=O)c3n2)c1 [Example 308, (E)-3-(2-(3-(2-hydroxypropan-2-yl)phenyl)-5H-pyrrolo[2,3-b]pyrazin-7-yl)acrylamide]"
10,> 1000,"O=C(Nc1c[nH]c2ncc(-c3ccccc3)cc12)C1=CCCC1 [Example 232, N-(5-phenyl-1H-pyrrolo[2,3-b]pyridin-3-yl)cyclopent-1-enecarboxamide]"
11,≤ 1000,"Cc1cc(-c2cnc3[nH]cc(/C=C/C(N)=O)c3c2)cc(C(F)(F)F)c1 [Example 348, (E)-3-(5-(3-methyl-5-(trifluoromethyl)phenyl)-1H-pyrrolo[2,3-b]pyridin-3-yl)acrylamide]"
12,≤ 1000,"COCCN(C)C(=O)c1cnc2[nH]cc(/C=C/C(N)=O)c2c1 [Example 357, (E)-3-(3-amino-3-oxoprop-1-en-1-yl)-N-(2-methoxyethyl)-N-methyl-1H-pyrrolo[2,3-b]pyridine-5-carboxamide]"
13,≤ 1000,CC(C)c1ccccc1-c1cnc2[nH]cc(/C=C/C(N)=O)c2n1 [Example 359]
14,≤ 1000,"NC(=O)/C=C/c1c[nH]c2ncc(-c3ccc(=O)n(CC4CC4)c3)cc12 [Example 328, (E)-3-(5-(1-(cyclopropyl-methyl)-6-oxo-1,6-dihydropyridin-3-yl)-1H-pyrrolo[2,3-b]pyridin-3-yl)acrylamide]"
15,≤ 1000,"CC(C)(O)c1ccc(-c2cnc3[nH]cc(/C=C/C(N)=O)c3c2)cn1 [Example 312, (E)-3-(5-(6-(2-hydroxypropan-2-yl)pyridin-3-yl)-1H-pyrrolo[2,3-b]pyridin-3-yl)acrylamide]"
16,≤ 1000,"Cc1cc(C2CCC(c3cnc4[nH]cc(/C=C/C(N)=O)c4c3)CC2)cc(C(F)(F)F)c1 (stereo not drawn) [Example 358, (E)-3-(5-(4-(3-methyl-5-(trifluoromethyl)phenyl)cyclohexyl)-1H-pyrrolo[2,3-b]pyridin-3-yl)acrylamide]"
17,≤ 1000,"NC(=O)/C=C/c1c[nH]c2ncc(-c3ccc(Oc4ccc(F)cc4)cc3)cc12 [Example 344, (E)-3-(5-(4-(4-fluorophenoxy)phenyl)-1H-pyrrolo[2,3-b]pyridin-3-yl)acrylamide]"
